Data: patent US20070130640A1, “Methods of modulating auxin production in plants” (priority 2005, published 2007)
Like-named read-outs stand apart in the source and are kept apart here.

Legend:
CYP83B1 [1] = target: T1, CYP83B1 (Arabidopsis thaliana, UniProt O65782); experiment: Spectral analysis (optical difference spectroscopy) of ligand binding to heterologously expressed CYP83B1 in yeast microsomes
T1 sequence (O65782 1-499): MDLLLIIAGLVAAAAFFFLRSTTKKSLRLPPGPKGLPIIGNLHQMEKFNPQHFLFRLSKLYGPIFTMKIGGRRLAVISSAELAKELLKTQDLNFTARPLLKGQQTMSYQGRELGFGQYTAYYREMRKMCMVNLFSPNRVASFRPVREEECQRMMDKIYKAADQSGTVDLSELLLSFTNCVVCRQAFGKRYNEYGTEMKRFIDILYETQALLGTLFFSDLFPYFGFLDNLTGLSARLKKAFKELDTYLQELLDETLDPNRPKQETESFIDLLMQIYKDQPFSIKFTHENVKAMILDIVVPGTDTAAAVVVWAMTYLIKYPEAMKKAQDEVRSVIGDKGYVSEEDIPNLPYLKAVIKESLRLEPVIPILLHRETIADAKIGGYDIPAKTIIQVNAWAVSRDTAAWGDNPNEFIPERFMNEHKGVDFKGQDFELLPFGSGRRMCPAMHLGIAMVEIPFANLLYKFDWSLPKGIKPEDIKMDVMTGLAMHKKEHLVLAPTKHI
Description: (§1) FIG. 3. (A) Analysis of CYP83B1 by optical difference spectroscopy. […] After incubation for 10 min at 28° C., reaction mixtures were extracted with ethylacetate and analyzed by TLC. (s) substrate, (p) product.

CYP83B1 [2] = target: T1, CYP83B1; experiment: CYP83B1 catalysis of [5-3H]indole-3-acetaldoxime metabolism (Km, Vmax, inhibition; TLC / scintillation counting)
Description: as §1
After incubation, reaction mixtures were stopped by adding SDS to 0.4% and were analyzed by thin layer chromatography (TLC). TLC plates were developed in chloroform/methanol/water (85:14:1) and radioactive bands visualized by autoradiography.
Reactions were stopped and extracted with ethylacetate. Aliquots of the substrate-containing ethylacetate phase and product-containing water phase were subjected to liquid scintillation counting.

Arabidopsis seedlings = experiment: Seedling growth on media supplemented with IAN (auxin phenotype); assay type: in vivo
Description: Four nitrilases, differentially expressed during development and in response to environmental cues, catalyze hydrolysis of IAN to IAA in Arabidopsis (Bartel and Fink (1994) Proc. Natl. Acad. Sci. USA 91:6649-6653). The nitl mutant is insensitive to the auxin effects of exogenously applied IAN at the seedling stage (Normanly et al. (1997) Plant Cell 9:1781-1790). In accordance with the observed insensitivity of nit1 seedlings to IAN, NIT1 is most strongly expressed in the hypocotyl near the junction with the root in young seedlings as well as in the cotyledons. In contrast, NIT2 and NIT3 are expressed primarily in the cotyledons and NIT4 is expressed in the root tip (Bartel and Fink (1994) Proc. Natl. Acad. Sci. USA 91:6649-6653).

NIT1 = target: T2, NIT1 (Arabidopsis thaliana, UniProt P32961); conditions: cited from earlier work
T2 sequence (P32961 1-346): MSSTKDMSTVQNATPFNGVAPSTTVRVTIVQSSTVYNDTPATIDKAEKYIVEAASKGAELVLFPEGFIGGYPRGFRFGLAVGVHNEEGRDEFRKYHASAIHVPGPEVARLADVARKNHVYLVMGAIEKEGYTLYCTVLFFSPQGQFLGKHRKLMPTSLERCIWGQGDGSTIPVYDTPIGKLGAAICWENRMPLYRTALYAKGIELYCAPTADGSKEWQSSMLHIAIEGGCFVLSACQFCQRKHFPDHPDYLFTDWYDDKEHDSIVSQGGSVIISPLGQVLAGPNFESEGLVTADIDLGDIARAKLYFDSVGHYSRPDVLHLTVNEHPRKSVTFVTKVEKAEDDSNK

NIT2 = target: T3, NIT2 (Arabidopsis thaliana, UniProt P32962); conditions: cited from earlier work
T3 sequence (P32962 1-339): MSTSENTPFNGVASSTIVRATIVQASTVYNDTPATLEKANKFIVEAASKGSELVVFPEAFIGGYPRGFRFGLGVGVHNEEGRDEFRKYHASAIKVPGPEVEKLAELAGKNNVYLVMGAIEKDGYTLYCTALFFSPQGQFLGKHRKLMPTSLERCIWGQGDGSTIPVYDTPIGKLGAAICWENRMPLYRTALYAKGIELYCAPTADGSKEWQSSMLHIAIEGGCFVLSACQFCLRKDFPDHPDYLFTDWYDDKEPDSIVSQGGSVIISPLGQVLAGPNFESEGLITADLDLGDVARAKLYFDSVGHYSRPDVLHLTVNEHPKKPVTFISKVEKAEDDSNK

wild type seedlings = experiment: Indole glucosinolate levels in seedlings grown on MS agar, quantified colorimetrically as SCN; assay type: in vivo, Arabidopsis; conditions: wild type seedlings germinated on MS media with 100 μM tryptamine; two week old; n=10
Description: FIG. 6. Indole glucosinolate levels are affected by CYP83B1 expression. Indole glucosinolates in individual two week old seedlings grown on MS agar were quantified calorimetrically as SCN. 1) Wild type, 2) rnt1-1, 3) molecularly complemented line 3.25.11, 4) overexpression line 1.4.7, and 5) wild type grown on 100 μM tryptamine. Data are represented as the mean ±S.E, (n=10 seedlings). Except for the molecularly complemented line 3.25.11, mean indole glucosinolate values all differ from wild type seedling values at a 1% confidence value (t-test).
Tryptophan-derived indole-3-acetaldoxime is also an intermediate in the biosynthesis of indole glucosinolates.

[3] = substrate: ON=CCc1c[nH]c2ccccc12; experiment: purified protein, by the assay type; conditions: other: in the presence of cysteine, 2.2 nM CYP83B1, 1 min at 28 °C, estimated, pH 7.6

ON=CCc1c[nH]c2ccccc12 [indole-3-acetaldoxime]
type of binding spectrum caused (CYP83B1 [1]): weak reverse type I spectrum
turnover (number) (CYP83B1 [2]; in the presence of cysteine, 2.2 nM CYP83B1, 1 min at 28 °C): 53 min⁻¹

N#CCc1c[nH]c2ccccc12 [IAN, indole-3-acetonitrile]
effect on rnt1-1 seedlings (germination) (Arabidopsis seedlings; rnt1-1 seedlings grown on 50 μM IAN): almost completely inhibiting germination
phenotype of wild type seedlings (Arabidopsis seedlings; wild type Arabidopsis seedlings on media with 50 μM IAN): phenocopy rnt1-1 seedlings
Km for IAN hydrolysis (NIT1): in the mM range
Km for IAN hydrolysis (NIT2): in the mM range

NCCc1c[nH]c2ccccc12 [tryptamine]
type of binding spectrum caused (CYP83B1 [1]; yeast microsomes containing CYP83B1): typical type IIa binding spectrum
inhibition of CYP83B1 catalysis (indole-3-acetaldoxime oxidation) (CYP83B1 [2]; 22 nM CYP83B1, 35 μM [5-3H]indole-3-acetaldoxime, 17.5 mM tryptamine, 10 min at 28 °C, TLC (FIG. 3B)): inhibitor
indole glucosinolate levels compared to wild type seedlings (wild type seedlings): reduced levels

B1: CYP83B1 (Arabidopsis thaliana) (protein)
chain: MDLLLIIAGLVAAAAFFFLRSTTKKSLRLPPGPKGLPIIGNLHQMEKFNPQHFLFRLSKLYGPIFTMKIGGRRLAVISSAELAKELLKTQDLNFTARPLLKGQQTMSYQGRELGFGQYTAYYREMRKMCMVNLFSPNRVASFRPVREEECQRMMDKIYKAADQSGTVDLSELLLSFTNCVVCRQAFGKRYNEYGTEMKRFIDILYETQALLGTLFFSDLFPYFGFLDNLTGLSARLKKAFKELDTYLQELLDETLDPNRPKQETESFIDLLMQIYKDQPFSIKFTHENVKAMILDIVVPGTDTAAAVVVWAMTYLIKYPEAMKKAQDEVRSVIGDKGYVSEEDIPNLPYLKAVIKESLRLEPVIPILLHRETIADAKIGGYDIPAKTIIQVNAWAVSRDTAAWGDNPNEFIPERFMNEHKGVDFKGQDFELLPFGSGRRMCPAMHLGIAMVEIPFANLLYKFDWSLPKGIKPEDIKMDVMTGLAMHKKEHLVLAPTKHI
Km [3]: 3 µM
